These results are taken from US3991193A, “Derivatives of 4(3H)-quinazolone, pharmaceutical compositions thereof and methods of use” (Roussel-UCLAF, priority 1973, dated 1976).

Read-outs that look alike come from different tables or passages of the source.

Data set [1] has as its system mouse. Put plainly: Righting Reflex Test in Mouse. The format is in vivo. The following applies: for ED50: at time of peak activity, read-out: ED50 (dose producing loss of righting reflex in 50% of a group of mice). On the procedure: Groups of ten mice received the test compound orally or i.p. at various dose levels, a control group receiving vehicle alone. All mice were housed individually in glass beakers and were assessed for loss of righting reflex at 1/4, 1/2, 1, 2, 4 and 6 hours after dosing. […] From the results obtained a dose response line was constructed and the dose producing 50% loss of righting reflex was estimated for each observation time. This ED50 value (the dose producing loss of righting reflex in 50% of a group of mice) was quoted for the time of peak activity.

Data set [2] concerns mouse. Put plainly: Rotating Drum Test in Mouse. Particulars: 0.5 h, 30 min. after dosing, 2 min. test period, read-out: ED50 (dose causing 50% of the mice to fall off the drum). The format is in vivo. On the procedure: Groups of ten mice received p.o. or i.p. the test compound at various dose levels, a control group receiving the vehicle alone by each route .30 min. after dosing each group of mice was placed on a 30 cm diameter rotating drum revolving at 1 revolution/minute. The mice were placed on the drum against its direction of movement and the number of mice falling off within a 2 min. test period was noted. From the results obtained a dose response line was constructed and the dose causing 50% of the mice to fall off the drum (ED50) was estimated.

In data set [3] the test system is mouse. Put plainly: Anticonvulsant Test Against Electroshock in Mouse. The format is in vivo. The following applies: 0.5 h, 30 min. after dosing, electroshock 55 mA, read-out: ED50 (dose protecting 50% of the mice from tonic extension of hind limbs). On the procedure: 3. Anticonvulsant Test Against Electroshock
Groups of ten mice received p.o. or i.p. the test compound at various dose levels, a control group received the vehicle alone. 30 min. after dosing, each group was then shocked via auricular electrodes using the electroshock apparatus (Ugo Basile ECT apparatus for small mammals) using the following parameters: […]
______________________________________
The number of mice which underwent tonic extension of hind limbs was noted. The dose protecting 50% of the mice (ED50) was estimated.

The nature of data set [4]: Acute Toxicity Tests in mouse. The following applies: in vivo. As to the method:
1. The activity of 2-methyl-3-(o-cyanophenyl)-4(3H)-quinazolone hydrochloride was investigated in the mouse by the following 5 tests.
Acute toxicities by p.o and i.p. routes were conducted using groups of ten mice at various dose levels. Groups dosed p.o. and i.p. were assessed for mortality at 24 hours.
The activity of methaqualone (2-methyl-3-(o-tolyl)-4-quinazolone) was investigated under the same conditions by using the test procedures indicated in the five tests above.

The subject of data set [5] is rat. Put plainly: Righting Reflex Test in Rat. The format is in vivo, Sprague-Dawley rat. Particulars: for ED50: male Sprague-Dawley rat, read-out: ED50 (loss of righting reflex). On the procedure: Groups of ten male Sprague-Dawley rats received the test compound i.p. or p.o. at various doses. The animals dosed i.p. were assessed for loss of righting reflex immediately after dosing and those dosed p.o. were assessed at 1/4, 1/2, 1, 2, 4 and 6 hours after dosing.

Data set [6] can be described thus: Acute Toxicity Test in Rat. Particulars: in vivo. On the procedure: (§1) II. The activity of 2-methyl-3-(o-cyanophenyl)-4(3H)-quinazolone hydrochloride was also investigated in rat by the following tests.
(§2) Groups of ten rats were dosed p.o. or i.p. with various doses of the test compound and after 24 hours were assessed for mortality.
(§3) The activity of Methaqualone was investigated in the same conditions.

Data set [7] deals with rat. Put plainly: Acute Toxicity Test in Rat. As to the method: as §1, §2, §3
Data set [8] concerns mouse. Put plainly: Potentiation of Hexobarbitone Sleeping Time in Mouse. The format is in vivo. The following applies: i.p., Hexobarbitone Sodium 65 mg/kg i.v. On the procedure:
4. Potentiation of Hexobarbitone Sleeping Time
A group of eight control mice received a dose of 65 mg/kg Hexobarbitone Sodium i.v. and subsequent sleeping times were recorded. A time value equivalent to mean sleeping time plus two standard deviations was established as a cut-off point. Other groups of eight mice received in identical dose of Hexobarbitone Sodium and at half the means control sleeping time were given various doses of the test compound i.p. The number of mice in each group asleep at the cut-off was recorded. A dose response curve was constructed and the dose at which 50% of the mice remained asleep at this cut-off point (ED50) was estimated.

Setting [9] is: ip, i.p., assessed immediately after dosing.
[10] abbreviates: po, p.o., assessed 1/4 to 6 hours after dosing.

Usually ED50 stands for the dose at which the effect has come halfway, by size or by number of responders. By LD50 is commonly meant the dose expected to kill half of the subjects tested. Lower therefore signals a more toxic substance. Consider `Cc1nc2ccccc2c(=O)n1-c1ccccc1C#N.Cl` [2-methyl-3-(o-cyanophenyl)-4(3H)-quinazolone hydrochloride], for which the ED50 was determined as 47 mg/kg in the data set with mouse [1] (ip); 112 mg/kg in the data set with mouse [1] (po); 26.5 mg/kg in the data set with mouse [2] (ip, i.p.); 23 mg/kg in the data set on mouse [2] (po, p.o.); 10 mg/kg in the data set on mouse [3] (ip, i.p.); 9 mg/kg with mouse [3] (po, p.o.). The results for the ED50 with rat [5] (setting [9]) and with rat [5] (setting [10]) were 28 mg/kg and 106 mg/kg, respectively. The oral hypnotic effectiveness entry in the data set with mouse [1] (oral) is “very effective oral hypnotic in mouse”. The 50% lethal dose (LD50) at 24 h was 570 mg/kg in data set [4] (ip), 1600 mg/kg in data set [4] (po), over 300 mg/kg in data set [6] (ip) and over 1000 mg/kg in data set [6] (po). Also, the “effectiveness compared with Methaqualone” value in the data set on rat [5] (rat) is recorded as “much more effective than Methaqualone in the rat”. Also, the “toxicity compared with Methaqualone” value with rat [7] is reported as “less toxic”.
Take `Cc1ccccc1-n1c(C)nc2ccccc2c1=O` [Methaqualone, 2-methyl-3-(o-tolyl)-4-quinazolone, reference compound]: the ED50 in the data set with mouse [1] (ip) was 81 mg/kg; in the data set on mouse [1] (po), 160 mg/kg; in the data set with mouse [2] (ip, i.p.) it was 30 mg/kg; in the data set on mouse [2] (po, p.o.), 49 mg/kg; in the data set on mouse [3] (ip, i.p.) it was 21.5 mg/kg; in the data set with mouse [3] (po, p.o.) it was 42 mg/kg. The ED50 worked out at 48 mg/kg in the data set on rat [5] (setting [9]) and 170 mg/kg with rat [5] (setting [10]). The “ED50 (dose at which 50% of the mice remained asleep at the cut-off point)” value in the data set on mouse [8] stood at 25 mg/kg. In addition, the LD50 at 24 h in data set [4] (ip) was found to be 550 mg/kg; in data set [4] (po) it was 1700 mg/kg; in data set [6] (ip) it was 190 mg/kg; in data set [6] (po), 440 mg/kg.
